Source: PMC3669009, “Degradation of Phytate by the 6-Phytase from Hafnia alvei: A Combined Structural and Solution Study” (PLoS ONE, 2013)

Tests used:
[1] = molecular target: T1, YkPhy (Yersinia kristensenii phytase) (Yersinia kristensenii, UniProt H9TUK6); settings: SPGS buffer pH 5.0 (phosphate from crystallisation solution); two Pi in the active site
T1 construct: gene phyA

[2] = molecular target: T2, HaPhy (Hafnia alvei phytase) (Hafnia alvei, UniProt H9TUK5); test: isothermal titration calorimetry; type: binding
T2 construct: gene phyA; recombinant mature enzyme, purified, residues 1-416; expression details only in SI; monomer in the asymmetric unit; four disulphides
T2 sequence (H9TUK5 34-446): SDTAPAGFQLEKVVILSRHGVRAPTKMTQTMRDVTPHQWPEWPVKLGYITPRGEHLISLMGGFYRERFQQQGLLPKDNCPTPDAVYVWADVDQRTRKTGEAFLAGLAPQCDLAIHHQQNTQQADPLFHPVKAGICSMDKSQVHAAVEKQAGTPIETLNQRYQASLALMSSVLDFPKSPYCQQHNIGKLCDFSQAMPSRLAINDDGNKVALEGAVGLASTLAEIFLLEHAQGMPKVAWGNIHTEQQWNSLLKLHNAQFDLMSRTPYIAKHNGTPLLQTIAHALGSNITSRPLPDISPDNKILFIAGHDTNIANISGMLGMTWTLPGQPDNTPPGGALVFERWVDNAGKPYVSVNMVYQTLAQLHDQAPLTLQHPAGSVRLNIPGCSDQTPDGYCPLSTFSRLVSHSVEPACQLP

[3] = molecular target: T2, HaPhy (Hafnia alvei phytase); test: X-ray crystal structure of the complex, […] Å; type: binding; settings: 0.2 M potassium/sodium tartrate, pH 8.4-9.1 (from crystallisation solution); active site; second tartrate at occupancy 0.25

T1 sequence (H9TUK6 entry or part of it): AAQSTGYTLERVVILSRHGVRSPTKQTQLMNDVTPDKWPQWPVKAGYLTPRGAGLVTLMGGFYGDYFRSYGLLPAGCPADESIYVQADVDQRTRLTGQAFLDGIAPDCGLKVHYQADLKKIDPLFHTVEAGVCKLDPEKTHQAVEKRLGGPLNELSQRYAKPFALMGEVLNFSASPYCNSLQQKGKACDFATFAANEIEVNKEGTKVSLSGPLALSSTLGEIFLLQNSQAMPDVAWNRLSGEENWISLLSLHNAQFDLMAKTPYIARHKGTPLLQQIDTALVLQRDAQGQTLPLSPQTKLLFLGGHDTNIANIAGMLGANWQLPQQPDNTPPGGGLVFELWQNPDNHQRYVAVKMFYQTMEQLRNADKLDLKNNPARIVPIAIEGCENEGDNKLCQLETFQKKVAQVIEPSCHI

With `O=P(O)(O)O` [Pi, phosphate] the “X-ray crystal structure of the complex, 1.67 Å” value [1] was “Each monomer contains two Pi molecules in its active site”.

For `O=S(=O)(O)O[C@H]1[C@H](OS(=O)(=O)O)[C@@H](OS(=O)(=O)O)[C@H](OS(=O)(=O)O)[C@@H](OS(=O)(=O)O)[C@H]1OS(=O)(=O)O` [MIHS, myo-inositol hexakissulphate], the Kd [2] was roughly 160 nM.

For `O=C(O)C(O)C(O)C(=O)O` (stereo not drawn) [L(+)-tartrate], the “X-ray crystal structure of the complex, 1.60 Å” value [3] was “The active site contained a tartrate molecule, a component of the crystallisation buffer”.
